According to EP1818063A1, “MEDICINE FOR TREATMENT OF DISEASE CAUSED BY HYPERSTIMULATORY CYTOTOXICITY AND THERAPEUTIC METHOD” (Japan Science and Technology Agency, priority 2004, dated 2006):
Like-named read-outs stand apart in the source and are kept apart here.

How the values were obtained:
Format in all cases: cell-based, mouse
[1] = system: volume-sensitive Cl- channel; experiment: Whole-cell patch-clamp of current activated by hyposmotic stimulation; conditions: primary cultured cerebral cortical neurons
Procedure: The cerebral cortex of fetuses removed from mice on day 16 of pregnancy was plated on cover-glass slips after digestion with papain. To prevent growth of glias and other proliferative cells, the cultures were supplemented with AraC (4 µM) 2 days after plating and a neuron-rich (>95%) culture system was prepared. A whole-cell patch-clamp technique was applied to primary cultures of cerebral cortical neurons (5-8 days after incubation). The intracellular and extracellular solutions used for the patch-clamp experiments were composed of the following. Intracellular solution (300mOsm, pH 7.4): 24 mM NMDG-C1, 100 mM NMDG-aspartate, 2 mM MgCl2, 5 mM Na2ATP, 0.3 mMNa3 GTP, 1 mM EGTA, 10 mM HEPES. […] Osmolality was adjusted by adding mannitol. Current activation was observed overtime by applying a potential of ±60 mV (500 ms duration, every 15 s) from a holding potential of -40 mV. To observe current kinetics, step pulses from -100 mV to +100 mV in 20 mV increments were applied (0.5 s duration) and current response was observed. The recordings were plotted in a current-voltage curve.

[2] = system: primary cultured cerebral cortical neurons; experiment: Necrotic neuronal cell death by PI staining after NMDA exposure
Procedure: (§1) In order to access effects of volume-sensitive Cl- channel blocker on neuronal swelling or necrosis caused by hyperexcitation, primary cultures of cerebral cortical neurons isolated from fetuses removed from mice on day 16 of pregnancy were used. The primary cultured cerebral cortical neurons were cultured in a 5% CO2 incubator at 37°C, using Dulbecco's medium supplemented with 10% fetal bovine serum, streptomycin, and penicillin. To visualize dendrites, the cultured cerebral cortical neurons were transfected with EGFP gene on day 3 of culture, using a […] phosphate method. As an excitotoxic stimulant, Earle's Balanced Salt Solution (EBSS; commercially available as GIBCO#14155-063) was used that contained 30 µM N-methyl-D-aspartate (NMDA) and 30 µM glycine, supplemented with 2 mM CaCl2 and 0.5 mM MgCl2. To confirm activation of volume-sensitive Cl- channel, an experiment was conducted using a perforated-vesicle patch-clamp technique. After forming a gigaohm seal on the membrane of the varicosities exposed to excitotoxic stimulation, recording electrodes were raised to record currents from a single varicosity patch membrane. The intracellular and extracellular solutions used for the patch-clamp experiment were composed of the following. Extracellular solution: 124 mM N-methyl-D-glucamine (NMDG), 124 mM HCl, 20 mM TEA-Cl, 4 mM MgCl2, 0.33 mM NaH2PO4, 0.5 mM EGTA, 10 mM 2-[4-(2-hydroxyethyl)-1-piperazinyl] ethanesulfonic acid (HEPES), 2 mM 4-aminopyridine (4-AP), 5.5 mM glucose, 270mOsm, pH7.4. Intracellular solution: 145 mM KCl, 10 mM HEPES, 1 mM EGTA, 1 mM MgCl2, 0.3 mg/ml nystatin, 300mOsm, pH 7.4.
(§2) Necrotic neuronal cell death was assessed by PI staining in which the nuclei are stained with a propidium iodide (PI) dye that enters the cells through damaged portions of the plasma membrane, or by measuring the level of extracellular lactate dehydrogenase (LDH) released from dead cells.

[3] = system: primary cultured cerebral cortical neurons; experiment: Varicosity formation (neuronal swelling) during excitotoxic NMDA stimulation
Procedure: as §1
Neuronal swelling was assessed as a proportion of varicosity-forming cells in the total number of neurons. After 20-minute excitotoxic stimulation, the cells were fixed with 4% paraformaldehyde, and the number of cells in each cell group was counted with a fluorescent microscope.
Figure 7A is micrographs showing excitotoxic swelling of neurons induced by glutamate receptor agonist (30 µM NMDA). Primary cultured cerebral cortical neurons were visualized through EGFP expression. […] Figure 7B represents inhibitory action of Cl- channel blocker on varicosity formation. In the Figure, asterisk indicates a level of significant difference (p<0.05) from data on NMDA (before application of blocker).

[4] = system: primary cultured cerebral cortical neurons; experiment: Necrotic neuronal cell death by LDH release after NMDA exposure
Procedure: as §1, §2

[5] = system: volume-sensitive Cl- channel; experiment: Perforated-vesicle patch-clamp of single-channel currents on the varicosity membrane
Procedure: In order to access effects of volume-sensitive Cl- channel blocker on neuronal swelling or necrosis caused by hyperexcitation, primary cultures of cerebral cortical neurons isolated from fetuses removed from mice on day 16 of pregnancy were used. The primary cultured cerebral cortical neurons were cultured in a 5% CO2 incubator at 37°C, using Dulbecco's medium supplemented with 10% fetal bovine serum, streptomycin, and penicillin. To visualize dendrites, the cultured cerebral cortical neurons were transfected with EGFP gene on day 3 of culture, using a […] phosphate method. As an excitotoxic stimulant, Earle's Balanced Salt Solution (EBSS; commercially available as GIBCO#14155-063) was used that contained 30 µM N-methyl-D-aspartate (NMDA) and 30 µM glycine, supplemented with 2 mM CaCl2 and 0.5 mM MgCl2. To confirm activation of volume-sensitive Cl- channel, an experiment was conducted using a perforated-vesicle patch-clamp technique. […]
After forming a gigaohm seal on the membrane of varicosities formed by excitotoxic stimulation (Figure 8A), the recording electrodes were lifted up to excise a single varicosity, with which recordings of volume-sensitive Cl- currents were made (Figure 8B). […] These properties of the recorded currents coincided with those of the volume-sensitive Cl- channel.

[6] = system: cerebral cortical neurons; experiment: Volume regulation (recovery from swelling) under hypotonic conditions, soma cross-sectional area by two-photon microscopy; conditions: 80 µM; hyposmotic solution 200mOsm
Procedure: Primary cultured neurons on day 5-8 of culture were loaded with calcein-AM to visualize the cells, and X-Y cross sectional images were captured over time with a two-photon laser microscope. Cell size was assessed based on changes in cross sectional area of the soma. An area ratio at each time point was calculated and plotted on a graph, with the area at the start of experiment given as 1 (Figure 2B). The solution used for the experiment had the following composition: 90 mM NaCl, 2.5 mM KCl, 5 mM HEPES, 2 mM MgCl2, 2 mM CaCl2, and 10 mM glucose.

[7] = system: EGFP-transfected primary cultured cerebral cortical neurons; experiment: Recovery from varicosities after removal of excitotoxic (NMDA) stimulation; conditions: 60 minutes after 20-minute 30 µM NMDA stimulation; concentration not given
Procedure: Primary cultured cerebral cortical neurons were transfected on day 3 of culture with a plasmid containing green fluorescent protein EGFP gene, using a […] phosphate method. […] Cells on day 2-6 of transfection were used for the experiment.
The cells were subjected to an excitotoxic stimulant by 20-minute exposure to low-magnesium HEPES buffer (composition: 142 mM NaCl, 2.5 mM KCl, 0.5 mM EGTA, 0.5 mM MgCl2, 0.33 mM NaH2PO4, 10 mM HEPES, 5.5 mM glucose, 0.03 mM glycine) containing NMDA (30 µM). After stimulation, the cells were washed three times with normal HEPES buffer (composition: 140 mM NaCl, 2.5 mM KCl, 2 mM CaCl2, 2 mM MgCl2, 10 mM HEPES, 5.5 mM glucose, 35 mM mannitol). The cells were then incubated at 37°C in the same buffer, and fixed with 4% paraformaldehyde at different time points (0, 15, 30, 60 min).
As in Example 4, EGFP-transfected primary cultured cerebral cortical neurons were used. According to the procedure of Example 4, the cells were subjected to excitotoxic stimulation, and incubated with normal HEPES buffer supplemented with various kinds of medicines. After 60 minutes, the cells were fixed with 4% paraformaldehyde, and the number of varicosity-bearing cells was counted with a fluorescent microscope as a percentage of the total number of counted neurons.

[8] = 40 µM co-applied with NMDA for 3 hours
[9] = 100 µM co-applied with NMDA for 3 hours
[10] = 100 µM during 20-minute 30 µM NMDA stimulation

O=S(=O)(O)c1cc(N=C=S)ccc1C=Cc1ccc(N=C=S)cc1S(=O)(=O)O [DIDS]
inhibition of current activated by hyposmotic stimulation ([1]; 400 µM): inhibited

O=C(O)c1cc([N+](=O)[O-])ccc1NCCCc1ccccc1 [NPPB]
inhibition of current activated by hyposmotic stimulation ([1]; 80 µM): inhibited | number of PI positive cells [2, 8]: decreased significantly | number of varicosity-forming neurons ([3]; 40 µM during 20-minute 30 µM NMDA stimulation): decreased significantly | level of LDH release [4, 8]: significantly inhibited | single-channel events observed on the varicosity ([5]; 80 µM, 3 minutes after application): blocked | blocking effect after removal ([5]; 3 minutes after removal of 80 µM): reversible | volume regulation [6]: inhibited | Recovery from varicosities [7]: significantly inhibited

CN1CCc2cc3c(cc2[C@H]1[C@@H]1OC(=O)c2c1ccc1c2OCO1)OCO3 [bicuculline]
number of PI positive cells [2]: no significant inhibiting effects | number of varicosity-forming neurons [3]: no significant inhibiting effects | level of LDH release [4]: No inhibiting effects

O=C(CCc1ccc(O)cc1)c1c(O)cc(O)cc1O [phloretin]
inhibition of current activated by hyposmotic stimulation ([1]; 100 µM): inhibited | number of PI positive cells [2, 9]: decreased significantly | number of varicosity-forming neurons [3, 10]: decreased significantly | level of LDH release [4, 9]: significantly inhibited | Recovery from varicosities [7]: significantly inhibited

picrotoxin
number of PI positive cells [2, 9]: no significant inhibiting effects | number of varicosity-forming neurons [3, 10]: no significant inhibiting effects | level of LDH release [4, 9]: No inhibiting effects
